ChEMBL document CHEMBL4376844, “A Novel Decalin-Based Bicyclic Scaffold for FKBP51-Selective Ligands” (J Med Chem, 2020)
Activity calls are given as the source filed them. The rule behind the calls is not given here.

What was measured:
[1] = molecular target: T1, Peptidyl-prolyl cis-trans isomerase FKBP5 (Homo sapiens, UniProt Q13451); test: Inhibition of human full length N-terminal His-tagged/C-terminal FLAG tagged FKBP51 expressed in Escherichia coli BL21 (DE3) cells incubated for 30 mins by competitive fluorescence polarization assay
T1 sequence (Q13451 whole entry): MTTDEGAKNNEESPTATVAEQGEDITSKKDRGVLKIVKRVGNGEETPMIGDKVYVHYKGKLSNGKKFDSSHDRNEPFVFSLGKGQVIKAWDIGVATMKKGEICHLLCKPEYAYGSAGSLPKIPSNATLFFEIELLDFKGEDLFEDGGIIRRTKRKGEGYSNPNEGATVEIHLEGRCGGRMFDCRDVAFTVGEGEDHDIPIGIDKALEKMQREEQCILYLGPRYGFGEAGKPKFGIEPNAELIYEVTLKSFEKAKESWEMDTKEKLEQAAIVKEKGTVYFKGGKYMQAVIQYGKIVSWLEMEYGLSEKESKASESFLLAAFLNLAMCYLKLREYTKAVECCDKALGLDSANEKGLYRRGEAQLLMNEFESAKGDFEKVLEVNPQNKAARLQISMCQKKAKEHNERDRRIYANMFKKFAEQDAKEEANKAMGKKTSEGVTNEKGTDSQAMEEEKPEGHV

[2] = molecular target: T2, Peptidyl-prolyl cis-trans isomerase FKBP4 (Homo sapiens, UniProt Q02790); test: Inhibition of human full length N-terminal His-tagged/C-terminal FLAG tagged FKBP52 expressed in Escherichia coli BL21 (DE3) cells incubated for 30 mins by competitive fluorescence polarization assay; details: 0.5 h
T2 sequence (Q02790 whole entry): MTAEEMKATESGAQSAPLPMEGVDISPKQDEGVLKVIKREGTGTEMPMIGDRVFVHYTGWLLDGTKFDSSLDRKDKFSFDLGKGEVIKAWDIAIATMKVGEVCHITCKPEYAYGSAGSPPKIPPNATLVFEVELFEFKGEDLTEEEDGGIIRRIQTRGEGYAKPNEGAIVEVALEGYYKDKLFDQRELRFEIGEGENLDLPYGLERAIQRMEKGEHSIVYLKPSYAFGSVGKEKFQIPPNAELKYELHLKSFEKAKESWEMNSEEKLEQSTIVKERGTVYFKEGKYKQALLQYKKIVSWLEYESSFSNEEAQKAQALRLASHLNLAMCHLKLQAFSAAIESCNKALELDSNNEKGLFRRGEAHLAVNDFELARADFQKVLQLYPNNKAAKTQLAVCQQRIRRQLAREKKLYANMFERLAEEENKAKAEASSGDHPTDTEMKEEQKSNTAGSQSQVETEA

[3] = Solubility of compound; format: physicochemical
[4] = molecular target: T3, Peptidyl-prolyl cis-trans isomerase FKBP5 (Homo sapiens) (UniProt Q13451); test: Inhibition of human full length N-terminal His-tagged/C-terminal FLAG tagged FKBP51 expressed in Escherichia coli BL21 (DE3) cells at >=10 uM incubated for 30 mins by competitive fluorescence polarization assay
T3 sequence (whole entry): T1 sequence (Q13451 whole entry)

Row | Structure (SMILES) | Ki [1] [nM] | inhibition (INH) [2] | solubility [3] [µM] | inhibition [4]
1 | COc1ccc(CCC(OC(=O)C2CCCCN2C(=O)[C@H]2[C@@H]3CCCC[C@H]3C=C[C@@H]2C)c2cccc(OCCN3CCOCC3)c2)cc1OC (single isomer, unassigned) | 1900 | Not Active |  | 
2 | COc1ccc(CC[C@@H](OC(=O)[C@@H]2CCCCN2C(=O)[C@H]2[C@@H]3CCCC[C@H]3C=C[C@@H]2C)c2cccc(OCC(=O)O)c2)cc1OC | 2000 | Not Active |  | 
3 | COc1ccc(CC[C@@H](OC(=O)[C@@H]2CCCCN2C(=O)[C@@H]2CC=C[C@@H]3CCCC[C@H]32)c2cccc(OCC(=O)O)c2)cc1OC | 2400 | Not Active |  | 
4 | COc1ccc(CC[C@@H](OC(=O)[C@@H]2CCCCN2C(=O)[C@@H]2CC=C[C@@H]3CCC[C@H]32)c2cccc(OCC(=O)O)c2)cc1OC | 7800 | Not Active |  | 
5 | COc1ccc(CCC(OC(=O)C2CCCCN2C(=O)[C@@H]2CCC(=O)[C@@H]3CCCC[C@H]32)c2cccc(OCCN3CCOCC3)c2)cc1OC (single isomer, unassigned) | 230 | Not Active |  | 
6 | COc1ccc(CC[C@@H](OC(=O)[C@@H]2CCCCN2C(=O)c2nccc3ccccc23)c2cccc(OCC(=O)O)c2)cc1OC |  |  | > 10 | inactive
7 | COc1ccc(CC[C@@H](OC(=O)[C@@H]2CCCCN2C(=O)C2=CCc3ccccc32)c2cccc(OCC(=O)O)c2)cc1OC |  |  | > 10 | inactive
8 | COc1ccc(CCC(OC(=O)C2CCCCN2C(=O)[C@@H]2CC(=O)C[C@@H]3CCCC[C@H]32)c2cccc(OCCN3CCOCC3)c2)cc1OC (single isomer, unassigned) | 1300 | Not Active |  | 
9 | COc1ccc(CC[C@@H](OC(=O)[C@@H]2CCCCN2C(=O)[C@@H]2CC(=O)C[C@@H]3CCC[C@H]32)c2cccc(OCC(=O)O)c2)cc1OC | 28000 | Not Active |  | 
10 | COc1ccc(CCC(OC(=O)C2CCCCN2C(=O)[C@H]2[C@@H]3CCCC[C@H]3C(=O)C[C@@H]2C)c2cccc(OCCN3CCOCC3)c2)cc1OC (single isomer, unassigned) | 330 | Not Active |  | 
11 | COc1ccc(CC[C@@H](OC(=O)[C@@H]2CCCCN2C(=O)c2cccc3cccnc23)c2cccc(OCC(=O)O)c2)cc1OC |  |  | > 10 | inactive
12 | COc1ccc(CC[C@@H](OC(=O)[C@@H]2CCCCN2C(=O)[C@@H]2CCC[C@@H]3CCC[C@H]32)c2cccc(OCC(=O)O)c2)cc1OC | 2600 | Not Active |  | 
13 | COc1ccc(CC[C@@H](OC(=O)[C@@H]2CCCCN2C(=O)[C@H]2[C@@H]3CCCC[C@H]3CC[C@@H]2C)c2cccc(OCC(=O)O)c2)cc1OC | 490 | Not Active |  | 
14 | COc1ccc(CC[C@@H](OC(=O)[C@@H]2CCCCN2C(=O)[C@@H]2CCC(=O)[C@@H]3CCC[C@H]32)c2cccc(OCC(=O)O)c2)cc1OC | 3100 | Not Active |  | 
15 | COc1ccc(CC[C@@H](OC(=O)[C@@H]2CCCCN2C(=O)c2cccc3c2CCCC3)c2cccc(OCC(=O)O)c2)cc1OC |  |  | > 10 | inactive
16 | COc1ccc(CC[C@@H](OC(=O)[C@@H]2CCCCN2C(=O)[C@@H]2CCCc3ccccc32)c2cccc(OCC(=O)O)c2)cc1OC |  |  | > 10 | inactive
17 | COc1ccc(CCC(OC(=O)C2CCCCN2C(=O)[C@@H]2CC=C[C@@H]3CCCC[C@H]32)c2cccc(OCCN3CCOCC3)c2)cc1OC (single isomer, unassigned) | 2600 | Not Active |  | 
18 | COc1ccc(CC[C@@H](OC(=O)[C@@H]2CCCCN2C(=O)[C@@H]2C[C@H]3OC(C)(C)O[C@H]3[C@@H]3CCCC[C@H]32)c2cccc(OCCN3CCOCC3)c2)cc1OC | 8200 | Not Active |  | 
19 | COc1ccc(CC[C@@H](OC(=O)[C@@H]2CCCCN2C(=O)[C@@H]2CCC(O)[C@@H]3CCCC[C@@H]23)c2cccc(OCCN3CCOCC3)c2)cc1OC (some centres not stated) |  | Not Active |  | 
